The values below come from US9936701B2, “Herbicidal compounds” (Syngenta Participations AG, priority 2013, dated 2018).

For data set [1], the system named is a variety of test species. In words: Pre-emergence herbicidal activity (glasshouse, sprayed one day after sowing, evaluated after 13 days). It counts as in vivo. The arrangement: key: 5=total damage to plant; 0=no damage to plant. Conditions: application pre-emergence, rate 1000 g/Ha, scale 0-5. Put shortly: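 Compounds are applied pre-emergence as an aqueous spray, formulated in 50:50 acetone/water containing 0.5% Tween 20, to pots sown one day earlier. Plants grow in a controlled glasshouse and are scored 13 days later for damage from 0 to 5.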

In data set [2] the test system is a variety of test species. In words: Post-emergence herbicidal activity (glasshouse, sprayed after 8 days cultivation, evaluated after 13 days). Format: in vivo. The arrangement: key: 5=total damage to plant; 0=no damage to plant. Conditions: rate 1000 g/Ha, scale 0-5. The gist of the method:
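Seeds were sown in standard soil and cultivated for 8 days under controlled glasshouse conditions. Seedlings were then sprayed with an aqueous solution of the formulated compound containing 0.5% Tween 20. Injury was rated after a further 13 days, where 5 indicated total damage.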

In general, melting point refers to the temperature, or range, at which the solid turns liquid.

`CCC(C)(C)c1onc(N2CC(C)=C(OC)C2=O)c1C#N` [D13]: the melting point lay in the range of 72 to 74 °C. In data set [1], the “Pre-emergence herbicidal damage score, ABUTH” value came out at 2; the “Pre-emergence herbicidal damage score, ALOMY” value is 2; the “Pre-emergence herbicidal damage score, AMARE” value turned out to be 5; the “Pre-emergence herbicidal damage score, ECHCG” value was 4. In addition, in data set [1], the “Pre-emergence herbicidal damage score, SETFA” value worked out at 2 and the “Pre-emergence herbicidal damage score, ZEAMX” value is given as 2. In addition, in data set [2], the “ABUTH (Abutilon theophrasti) damage score, application post-emergence” value (shortened to “ABUTH … application post-emergence”) was 4; the “ALOMY (Alopecurus myosuroides) damage score, application post-emergence” value (from here on “ALOMY … application post-emergence”) is listed as 5; the “AMARE (Amaranthus retroflexus) damage score, application post-emergence” value (shortened to “AMARE … application post-emergence”) was 5; the “ECHCG (Echinochloa crus-galli) damage score, application post-emergence” value (“ECHCG … application post-emergence” below) is 5. Besides, in data set [2], the “SETFA (Setaria faberi) damage score, application post-emergence” value (from here on “SETFA (Setaria faberi) damage score”) was determined as 5 and the “ZEAMX (Zea mays) damage score, application post-emergence” value (shortened to “ZEAMX (Zea mays) damage score”) amounted to 2.
Turning to `CC1=C(Cl)C(=O)N(c2cc(C3CCCCC3)on2)C1O` (centres unmarked) [A25], the melting point lay in the range of 141 to 143 °C. In data set [1], the “Pre-emergence herbicidal damage score, ABUTH” value is given as 3; the “Pre-emergence herbicidal damage score, ALOMY” value worked out at 2; the “Pre-emergence herbicidal damage score, AMARE” value amounted to 5; the “Pre-emergence herbicidal damage score, ECHCG” value turned out to be 2. In data set [1], the “Pre-emergence herbicidal damage score, SETFA” value is recorded as 0 and the “Pre-emergence herbicidal damage score, ZEAMX” value turned out to be 0. Besides, in data set [2], the “ABUTH … application post-emergence” value stood at 5; the “ALOMY … application post-emergence” value is 3; the “AMARE … application post-emergence” value came to 4; the “ECHCG … application post-emergence” value stood at 4. Also, in data set [2], the “SETFA (Setaria faberi) damage score” value is recorded as 5 and the “ZEAMX (Zea mays) damage score” value is 1.
With `COC1=C(C)C(O)N(c2noc(C(C)C)c2C#N)C1=O` (centres unmarked) [D3], the melting point was 99 to 101 °C. In addition, in data set [1], the “Pre-emergence herbicidal damage score, ABUTH” value is recorded as 4; the “Pre-emergence herbicidal damage score, ALOMY” value was 3; the “Pre-emergence herbicidal damage score, AMARE” value worked out at 5; the “Pre-emergence herbicidal damage score, ECHCG” value is given as 5. In addition, in data set [1], the “Pre-emergence herbicidal damage score, SETFA” value is listed as 5 and the “Pre-emergence herbicidal damage score, ZEAMX” value worked out at 2. Further, in data set [2], the “ABUTH … application post-emergence” value stood at 5; the “ALOMY … application post-emergence” value came to 5; the “AMARE … application post-emergence” value is 5; the “ECHCG … application post-emergence” value was 5. For the same compound, in data set [2], the “SETFA (Setaria faberi) damage score” value was 5 and the “ZEAMX (Zea mays) damage score” value was determined as 4.
On to `CCC(C)(C)c1onc(N2C(=O)C(OC)=C(C)C2O)c1C#N` (centres unmarked) [D5], for which the melting point lay in the range of 79 to 81 °C. For the same compound, in data set [1], the “Pre-emergence herbicidal damage score, ABUTH” value is listed as 5; the “Pre-emergence herbicidal damage score, ALOMY” value is 4; the “Pre-emergence herbicidal damage score, AMARE” value stood at 5; the “Pre-emergence herbicidal damage score, ECHCG” value turned out to be 5. Further, in data set [1], the “Pre-emergence herbicidal damage score, SETFA” value is given as 5 and the “Pre-emergence herbicidal damage score, ZEAMX” value is 2. In addition, in data set [2], the “ABUTH … application post-emergence” value is reported as 5; the “ALOMY … application post-emergence” value turned out to be 5; the “AMARE … application post-emergence” value is recorded as 5; the “ECHCG … application post-emergence” value came to 5. In data set [2], the “SETFA (Setaria faberi) damage score” value stood at 5 and the “ZEAMX (Zea mays) damage score” value came to 5.
In turn, `CC1=C(Cl)C(=O)N(c2cc(C(C)(C)C#N)on2)C1O` (centres unmarked) [A42] came in with a melting point of 145 to 147 °C. In data set [1], the “Pre-emergence herbicidal damage score, ABUTH” value turned out to be 5; the “Pre-emergence herbicidal damage score, ALOMY” value was determined as 4; the “Pre-emergence herbicidal damage score, AMARE” value turned out to be 5; the “Pre-emergence herbicidal damage score, ECHCG” value was 4. For the same compound, in data set [1], the “Pre-emergence herbicidal damage score, SETFA” value is 5 and the “Pre-emergence herbicidal damage score, ZEAMX” value was 2. In data set [2], the “ABUTH … application post-emergence” value turned out to be 5; the “ALOMY … application post-emergence” value is given as 5; the “AMARE … application post-emergence” value came to 5; the “ECHCG … application post-emergence” value came to 5. In data set [2], the “SETFA (Setaria faberi) damage score” value came out at 5 and the “ZEAMX (Zea mays) damage score” value stood at 4.
Compound `CCOC1=C(C)C(O)N(c2cc(C(C)(C)C#N)on2)C1=O` (centres unmarked) [D6] had a melting point of 90 to 92 °C. Moreover, in data set [1], the “Pre-emergence herbicidal damage score, ABUTH” value amounted to 5; the “Pre-emergence herbicidal damage score, ALOMY” value is 4; the “Pre-emergence herbicidal damage score, AMARE” value was 5; the “Pre-emergence herbicidal damage score, ECHCG” value is on record as 5. Also, in data set [1], the “Pre-emergence herbicidal damage score, SETFA” value stood at 4 and the “Pre-emergence herbicidal damage score, ZEAMX” value came to 3. Moreover, in data set [2], the “ABUTH … application post-emergence” value is 5; the “ALOMY … application post-emergence” value is 4; the “AMARE … application post-emergence” value is recorded as 5; the “ECHCG … application post-emergence” value is on record as 5. In data set [2], the “SETFA (Setaria faberi) damage score” value stood at 5 and the “ZEAMX (Zea mays) damage score” value was 2.
On to `CC1=C(Cl)C(=O)N(c2noc(C(C)C)c2C#N)C1` [A103], for which the melting point was in the range of 112 to 114 °C. In addition, in data set [1], the “Pre-emergence herbicidal damage score, ABUTH” value turned out to be 5; the “Pre-emergence herbicidal damage score, ALOMY” value worked out at 4; the “Pre-emergence herbicidal damage score, AMARE” value worked out at 5; the “Pre-emergence herbicidal damage score, ECHCG” value came out at 5. Further, in data set [1], the “Pre-emergence herbicidal damage score, SETFA” value is recorded as 5 and the “Pre-emergence herbicidal damage score, ZEAMX” value came to 2. In data set [2], the “ABUTH … application post-emergence” value came to 5; the “ALOMY … application post-emergence” value came out at 4; the “AMARE … application post-emergence” value was 5; the “ECHCG … application post-emergence” value came to 5. Besides, in data set [2], the “SETFA (Setaria faberi) damage score” value came to 5 and the “ZEAMX (Zea mays) damage score” value is 3.
Regarding `C=CC(C)(C)c1cc(N2C(=O)C(Cl)=C(C)C2O)no1` (centres unmarked) [A41], the melting point was 114 to 116 °C. Also, in data set [1], the “Pre-emergence herbicidal damage score, ABUTH” value turned out to be 5; the “Pre-emergence herbicidal damage score, ALOMY” value came to 4; the “Pre-emergence herbicidal damage score, AMARE” value worked out at 5; the “Pre-emergence herbicidal damage score, ECHCG” value is on record as 4. For the same compound, in data set [1], the “Pre-emergence herbicidal damage score, SETFA” value is recorded as 5 and the “Pre-emergence herbicidal damage score, ZEAMX” value is 3. In data set [2], the “ABUTH … application post-emergence” value came out at 5; the “ALOMY … application post-emergence” value stood at 5; the “AMARE … application post-emergence” value is given as 5; the “ECHCG … application post-emergence” value was 5. Moreover, in data set [2], the “SETFA (Setaria faberi) damage score” value is given as 5 and the “ZEAMX (Zea mays) damage score” value was 4.
